Data from the CheMixHub viscosity set.

Test: xn = mol fraction of the nth substance listed

CCCOC(=O)c1ccccc1 + CCCCCC
101 kPa
Details	viscosity [mPa·s]
298.15 K, x2 = 0.0545	2.09
298.15 K, x2 = 0.1249	1.794
298.15 K, x2 = 0.1605	1.659
298.15 K, x2 = 0.2369	1.409
298.15 K, x2 = 0.2765	1.298
298.15 K, x2 = 0.33	1.155
298.15 K, x2 = 0.3772	1.043
298.15 K, x2 = 0.4847	0.827
298.15 K, x2 = 0.5259	0.756
298.15 K, x2 = 0.5689	0.69
298.15 K, x2 = 0.6152	0.627
298.15 K, x2 = 0.6632	0.569
298.15 K, x2 = 0.7031	0.525
298.15 K, x2 = 0.7496	0.479
298.15 K, x2 = 0.7954	0.448
298.15 K, x2 = 0.8308	0.42
298.15 K, x2 = 0.8752	0.399
298.15 K, x2 = 0.9201	0.371
298.15 K, x2 = 0.9574	0.351
308.15 K, x2 = 0.0876	1.62
308.15 K, x2 = 0.1454	1.451
308.15 K, x2 = 0.1923	1.32
308.15 K, x2 = 0.2499	1.174
308.15 K, x2 = 0.3064	1.046
308.15 K, x2 = 0.3543	0.95
308.15 K, x2 = 0.4116	0.845
308.15 K, x2 = 0.4488	0.785
308.15 K, x2 = 0.5082	0.698
308.15 K, x2 = 0.5509	0.643
308.15 K, x2 = 0.5926	0.594
308.15 K, x2 = 0.6346	0.55
308.15 K, x2 = 0.6803	0.507
308.15 K, x2 = 0.7241	0.468
308.15 K, x2 = 0.7719	0.433
308.15 K, x2 = 0.8096	0.406
308.15 K, x2 = 0.857	0.376
308.15 K, x2 = 0.8946	0.354
308.15 K, x2 = 0.9406	0.334
318.15 K, x2 = 0.0693	1.388
318.15 K, x2 = 0.1096	1.288
318.15 K, x2 = 0.1613	1.172
318.15 K, x2 = 0.221	1.048
318.15 K, x2 = 0.2711	0.954
318.15 K, x2 = 0.3284	0.856
318.15 K, x2 = 0.3767	0.781
318.15 K, x2 = 0.432	0.705
318.15 K, x2 = 0.4801	0.644
318.15 K, x2 = 0.5314	0.586
318.15 K, x2 = 0.5757	0.54
318.15 K, x2 = 0.6264	0.494
318.15 K, x2 = 0.6694	0.457
318.15 K, x2 = 0.7292	0.411
318.15 K, x2 = 0.76	0.391
318.15 K, x2 = 0.8056	0.362
318.15 K, x2 = 0.8466	0.34
318.15 K, x2 = 0.892	0.32
318.15 K, x2 = 0.9292	0.304

CCCCCCCC(=O)O + CCCCCC(=O)[O-].[Na+]
100 kPa, x2 = 0.3
Details	viscosity [mPa·s]
293.15 K	305.9
298.15 K	226.5
303.15 K	171.1
308.15 K	131.6
313.15 K	103
318.15 K	81.7
323.15 K	65.7

CCCCCCCCCCCCCCCCCCCC + CCCCCCC
viscosity [mPa·s], 101.3 kPa
Details	x1 = 0.2	x1 = 0.4	x1 = 0.499	x1 = 0.597	x1 = 0.796
293.2 K	0.9382	–	–	–	–
303.2 K	0.8194	1.567	2.02	–	–
313.2 K	0.7187	1.327	1.705	2.145	2.989

CCCCOC(C)=O + CCCCCCC
298.15 K, 101.3 kPa
Details	viscosity [mPa·s]
x1 = 0.0364	0.4006
x1 = 0.1529	0.4135
x1 = 0.2504	0.4295
x1 = 0.3266	0.4449
x1 = 0.4281	0.4667
x1 = 0.5399	0.4974
x1 = 0.6531	0.5328
x1 = 0.7531	0.5696
x1 = 0.8609	0.6155
x1 = 0.9693	0.6674
